# Like-named read-outs stand apart in the source and are kept apart here.
# Assays:
# Type in all cases: in vivo
# [1] = tested on: ducksalad (Heteranthera limosa); assay: Test C flooded paddy test: ducksalad; conditions: scale 0 to 100 (0 no effect, 100 complete control); for pest or weed control at 62 g/ha / pest or weed control at 250 g/ha / pest or weed control at 125 g/ha: Heteranthera limosa, read-out: Plant response rating, Ducksalad
# Outline: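 Plants at 2-leaf stage in pots flooded 3 cm above soil; compounds applied directly into the paddy water, depth maintained. Visual rating against controls after 13–15 days in greenhouse, scale 0 (no effect) to 100 (complete control).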
# [2] = tested on: radish, wild (wild radish, Raphanus raphanistrum); assay: Test D pre-/postemergence: radish, wild
# From the text: (§1) Seeds of plant species selected from bluegrass (annual bluegrass, Poa annua), blackgrass (Alopecurus myosuroides), canarygrass (Phalaris minor), chickweed (common chickweed, Stellaria media), galium (catchweed bedstraw, Galium aparine), bromegrass, downy (downy bromegrass, Bromus tectorum), field poppy (Papaver rhoeas), field violet (Viola arvensis), foxtail, green (green foxtail, Setaria viridis), deadnettle (henbit deadnettle, Lamium amplexicaule), ryegrass, Italian (Italian ryegrass, Lolium multiflorum), kochia (Kochia scoparia), lambsquarters (Chenopodium album), oilseed rape (Brassica napus), pigweed (Amaranthus retroflexus), Russian thistle (Salsola iberica), chamomile (scentless chamomile, Matricaria inodora), speedwell (bird's-eye speedwell, Veronica persica), barley, spring (spring barley, Hordeum vulgare), wheat, spring (spring wheat, Triticum aestivum), buckwheat, wild (wild buckwheat, Polygonum convolvulus), mustard, wild (wild mustard, Sinapis arvensis), oat, wild (wild oat, Avena fatua), radish, wild (wild radish, Raphanus raphanistrum), windgrass (Apera spica-venti), barley, winter (winter barley, Hordeum vulgare), and wheat, winter (winter wheat, Triticum aestivum) were planted into a silt loam soil and treated preemergence with test chemicals formulated in a non-phytotoxic solvent mixture which included a surfactant. At the same time, these same crop and weed species were planted in pots containing the planting medium comprising spaghnum peat moss, vermiculite, wetting agent and starter nutrients and treated with postemergence applications of the test chemicals formulated in the same manner. Plants ranged in height from 2 to 18 cm (1- to 4-leaf stage).
# (§2) Treated plants and controls were maintained in a controlled growth environment for 14 to 21 days after which time all species were compared to controls and visually evaluated. Plant response ratings, summarized in Table D, are based on a scale of 0 to 100 where 0 is no effect and 100 is complete control. A dash (-) response means no test result.
# [3] = tested on: barley, spring (spring barley, Hordeum vulgare); assay: Test D pre-/postemergence: barley, spring
# From the text: as §1, §2
# [4] = tested on: chickweed (common chickweed, Stellaria media); assay: Test D pre-/postemergence: chickweed
# From the text: as §1, §2
# [5] = Flood (flooded paddy test), 62 g ai/ha, visual rating after 13 to 15 days
# [6] = Flood (flooded paddy test), 250 g ai/ha, visual rating after 13 to 15 days
# [7] = Postemergence, 31 g ai/ha, scale 0 to 100 (0 no effect, 100 complete control)
# [8] = Postemergence, 62 g ai/ha, scale 0 to 100 (0 no effect, 100 complete control)
# [9] = Postemergence, 125 g ai/ha, scale 0 to 100, 0 no effect, 100 complete control
# [10] = Postemergence, 250 g ai/ha, scale 0 to 100 (0 no effect, 100 complete control)
# [11] = Preemergence, 62 g ai/ha, scale 0 to 100
# [12] = Preemergence, 125 g ai/ha, scale 0 to 100
# [13] = Preemergence, 250 g ai/ha, scale 0 to 100
# [14] = Preemergence, 31 g ai/ha, scale 0 to 100, 0 no effect, 100 complete control
# [15] = Postemergence, 16 g ai/ha, scale 0 to 100
# [16] = Flood (flooded paddy test), 125 g ai/ha, visual rating after 13 to 15 days
SMILES,"pest or weed control at 62 g/ha [1, 5] [%]","pest or weed control at 250 g/ha [1, 6] [%]","Plant response rating: Radish, Wild [2, 7]","Plant response rating: Radish, Wild [2, 8]","Plant response rating: Radish, Wild [2, 9]","Plant response rating: Radish, Wild [2, 10]","Plant response rating, Radish, Wild [2, 11]","Plant response rating, Radish, Wild [2, 12]","Plant response rating, Radish, Wild [2, 13]","Plant response rating: Barley, Spring [3, 7]","Plant response rating: Barley, Spring [3, 8]","Plant response rating: Barley, Spring [3, 9]","Plant response rating: Barley, Spring [3, 10]","Plant response rating: Chickweed [4, 7]","Plant response rating: Chickweed [4, 8]","Plant response rating: Chickweed [4, 9]","Plant response rating: Chickweed [4, 10]","Plant response rating, Radish, Wild [2, 15]","Plant response rating, Barley, Spring [3, 15]","Plant response rating, Chickweed [4, 15]",other results
"Cc1nn(-c2ccc(C(F)(F)F)cc2)nc1Oc1csc(C(F)(F)F)c1 [Compound 1, 4-methyl-2-[4-(trifluoromethyl)phenyl]-5-[[5-(trifluoromethyl)-3-thienyl]oxy]-2H-1,2,3-triazole]",0,0,–,–,–,–,–,–,–,–,–,–,–,–,–,–,–,–,–,–,–
"FC(F)(F)COc1nn(-c2ccc(C(F)(F)F)cc2)nc1Cc1ccnc(C(F)(F)F)c1 [Compound 14, 4-[[5-(2,2,2-trifluoroethoxy)-2-[4-(trifluoromethyl)phenyl]-2H-1,2,3-triazol-4-yl]methyl]-2-(trifluoromethyl)pyridine]",40,60,70,85,100,100,40,100,100,25,25,30,40,50,80,90,98,–,–,–,"Plant response rating, Barley, Spring [3, 14]: 0; Plant response rating, Barley, Spring [3, 11]: 10; Plant response rating, Barley, Spring [3, 12]: 15; Plant response rating, Barley, Spring [3, 13]: 20; Plant response rating, Chickweed [4, 14]: 75; Plant response rating, Chickweed [4, 11]: 100; Plant response rating, Chickweed [4, 12]: 100; Plant response rating, Chickweed [4, 13]: 100"
"COc1nn(-c2ccc(C(F)(F)F)cc2)nc1Cc1ccnc(C(F)(F)F)c1 [Compound 15, 4-[[5-methoxy-2-[4-(trifluoromethyl)phenyl]-2H-1,2,3-triazol-4-yl]methyl]-2-(trifluoromethyl)pyridine]",40,60,100,100,100,100,0,100,100,15,25,30,40,100,100,100,100,100,10,40,"Plant response rating, Radish, Wild [2, 14]: 0; Plant response rating, Barley, Spring [3, 14]: 0; Plant response rating, Barley, Spring [3, 11]: 0; Plant response rating, Barley, Spring [3, 12]: 10; Plant response rating, Barley, Spring [3, 13]: 15; Plant response rating, Chickweed [4, 14]: 100; Plant response rating, Chickweed [4, 11]: 100; Plant response rating, Chickweed [4, 12]: 100; Plant response rating, Chickweed [4, 13]: 100"
Cc1nn(-c2ccc(C(F)(F)F)cn2)nc1Oc1ccnc(C(F)(F)F)c1 [Compound 23],–,–,20,40,75,100,–,–,–,0,10,10,15,10,15,30,90,20,0,5,"Plant response rating, Ducksalad [1, 5]: 60; Plant response rating, Ducksalad [1, 16]: 60; Plant response rating, Ducksalad [1, 6]: 85; Plant response rating, Ducksalad ([1]; Flood, 31 g ai/ha): 50"
Cc1nn(-c2ccc(C(F)(F)F)cn2)nc1Cc1cccc(C(F)(F)F)c1 [Compound 106],–,–,100,100,100,100,30,30,30,10,15,20,30,90,90,90,90,100,5,20,"Plant response rating, Radish, Wild [2, 14]: 0; Plant response rating, Ducksalad [1, 16]: 70; Plant response rating, Ducksalad [1, 6]: 70; Plant response rating, Ducksalad ([1]; Flood, 31 g ai/ha): 0; Plant response rating, Ducksalad ([1]; Flood, 62 g ai/ha): 60; Plant response rating, Barley, Spring [3, 14]: 0; Plant response rating, Barley, Spring [3, 11]: 0; Plant response rating, Barley, Spring [3, 12]: 0; Plant response rating, Barley, Spring [3, 13]: 0; Plant response rating, Chickweed [4, 14]: 100; Plant response rating, Chickweed [4, 11]: 100; Plant response rating, Chickweed [4, 12]: 100; Plant response rating, Chickweed [4, 13]: 100"
"COCc1nn(-c2ccc(C(F)(F)F)cc2)nc1Oc1cccc(OC(F)(F)F)c1 [Compound 115, 4-(methoxymethyl)-5-[3-(trifluoromethoxy)phenoxy]-2-[4-(trifluoromethyl)phenyl]-2H-1,2,3-triazole]",–,20,–,–,–,–,–,–,–,–,–,–,–,–,–,–,–,–,–,–,"pest or weed control at 125 g/ha [1, 16]: 0%; pest or weed control at 62 g/ha ([1]; Flood, 62 g ai/ha): 0%"
"FCc1nn(-c2ccc(C(F)(F)F)cc2)nc1Oc1cccc(OC(F)(F)F)c1 [Compound 116, 4-(fluoromethyl)-5-[3-(trifluoromethoxy)phenoxy]-2-[4-(trifluoromethyl)phenyl]-2H-1,2,3-triazole]",–,50,–,–,–,–,–,–,–,–,–,–,–,–,–,–,–,–,–,–,"pest or weed control at 125 g/ha [1, 16]: 30%; pest or weed control at 62 g/ha ([1]; Flood, 62 g ai/ha): 0%"
COc1nn(-c2ccc(C(F)(F)F)cc2)nc1Cc1ccnc(C(F)F)c1 [Compound 138],–,–,80,95,100,100,–,–,–,20,25,35,40,60,85,95,100,80,10,60,–

# Source: patent publication US9302999B2, “Substituted triazoles as herbicides” (E. I. DU PONT DE NEMOURS AND COMPANY, priority 2012, dated 2016)
